13 compounds from patent publication US12606552B2, “Bifunctional compound, preparation method therefor, and use thereof” (SUZHOU KINTOR PHARMACEUTICALS, INC., priority 2020, dated 2026) can be followed below.

Series [1] is described as follows: Pharmacokinetic studies of compounds in mice. In kind it is in vivo. The note with it: male mice, intragastric administration 10 mg/kg, plasma. The procedure:
Activity Assay Example 3: Pharmacokinetic Studies of Compounds in Mice
In this test, 3 male mice were selected and divided into 1 group, 3 mice/group. All animals were fasted overnight before administration.
The intragastric administration dose was 10 mg/kg, and the administration volume was 10 mL/kg.
2.2 Preparation of Drug Solution
According to the animal body weight combined with the administration dose, the amount of the required drug solution was calculated. An appropriate amount of the test substance was weighed, added with 5% of the final volume of ethanol for dissolution, then added with 5% of the final volume of SolutolHS15, and finally added with PBS to the final volume, and mixed by vortex and fully dissolved to obtain a solution for intragastric administration (1 mg/mL). All solutions were prepared for immediate use.
2.3 Method of Administration
Before administration, the drug solution was placed on a magnetic stirrer in the animal laboratory and stirred for at least 10 min. During the administration process, vortex was continued to ensure uniformity of the drug solution. The theoretical volume of gavage administration was 10 mL/kg, which was administered with a syringe equipped with a gavage needle.
Before administration, the animals were weighed and the body weight of the animals involved in the experiment was recorded, and the administration volume of each animal was calculated according to the body weight. After administration, animals were promptly transferred back to the experimental cages to collect samples.
2.4 Observation of Animal Status
After administration, whether animals had abnormal reactions was observed immediately. If there were no abnormal reactions, animals were observed twice a day during the experiment. If abnormal reactions were found, they should be recorded in time, and the number of observations should be increased until the animals returned to normal or to the end of the experiment.
2.5 Sample Collection and Preservation
All experimental animals were fasted overnight before administration, and blood was collected at corresponding time points into blood collection tubes containing heparin sodium anticoagulant. After the whole blood was collected, the blood collection tube was gently shaken and placed on ice immediately, and then centrifuged (4° C., 4000 rpm, 10 min) to collect supernatant plasma samples, which were stored in a refrigerator at −80° C. before analysis.
2.6 Plasma Sample Processing and Analysis
The collected plasma samples were handed over to the Pharmacokinetic department for sample extraction, and the test substances in the plasma were extracted by protein precipitation method using organic reagents containing internal standards (acetonitrile:plasma=4:1, v/v). The extracted processed samples were submitted for quantitative concentration analysis by LC-MS/MS. According to the plasma concentration of each animal obtained by the analysis, software Kinetica (version 5.0) was used to calculate the main pharmacokinetic parameter eAUC30-120 according to the non-compartment model to evaluate the exposure amount; the test results are shown in Table 2: […]

The target in another series is T1, AR (Homo sapiens, UniProt P10275, T878A).
T1 sequence (P10275 1-920 T878A): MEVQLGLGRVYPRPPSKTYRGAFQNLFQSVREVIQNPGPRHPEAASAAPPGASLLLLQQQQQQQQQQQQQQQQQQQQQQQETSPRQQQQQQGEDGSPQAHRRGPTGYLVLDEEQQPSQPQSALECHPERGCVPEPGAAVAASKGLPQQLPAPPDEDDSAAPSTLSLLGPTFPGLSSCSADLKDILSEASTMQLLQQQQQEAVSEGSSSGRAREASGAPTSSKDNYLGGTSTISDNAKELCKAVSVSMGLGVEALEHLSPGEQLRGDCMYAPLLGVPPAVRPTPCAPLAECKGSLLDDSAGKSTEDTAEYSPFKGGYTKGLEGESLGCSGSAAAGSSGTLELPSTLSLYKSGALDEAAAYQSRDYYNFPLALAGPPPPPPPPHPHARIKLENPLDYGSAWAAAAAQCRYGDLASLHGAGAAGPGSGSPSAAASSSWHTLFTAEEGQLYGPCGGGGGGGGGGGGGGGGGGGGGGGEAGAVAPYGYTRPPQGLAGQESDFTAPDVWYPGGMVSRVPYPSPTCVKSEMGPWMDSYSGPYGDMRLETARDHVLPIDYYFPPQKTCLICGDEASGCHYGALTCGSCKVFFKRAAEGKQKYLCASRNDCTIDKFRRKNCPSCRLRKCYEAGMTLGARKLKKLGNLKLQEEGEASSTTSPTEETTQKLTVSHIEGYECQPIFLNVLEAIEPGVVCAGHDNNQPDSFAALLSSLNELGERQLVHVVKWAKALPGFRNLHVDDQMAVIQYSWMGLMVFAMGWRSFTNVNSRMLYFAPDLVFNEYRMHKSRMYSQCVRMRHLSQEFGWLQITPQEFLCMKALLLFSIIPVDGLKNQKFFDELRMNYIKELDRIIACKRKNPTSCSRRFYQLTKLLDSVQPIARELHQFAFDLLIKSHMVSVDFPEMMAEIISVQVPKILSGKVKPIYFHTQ
As to the kind of experiment: Effects of compounds on AR expression in LNCaP cells (ELISA, DC50). The note with it: 24 hours of drug treatment, AR by ELISA. Also noted: Measurement of the Effects of Drugs on the Expression of AR in Cells by ELISA Method; endogenous in cells; host or cells: LNCaP. In kind it is cell-based. Put shortly: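 LNCaP cells at about 15,000/well were treated for 24 h with compound at 0.0001–2 μmol/L final. AR in cell lysates was measured by ELISA (OD450). Inhibition was relative to DMSO control after blank subtraction, and DC50 was calculated from it.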

As for `CC1(C)C(=O)N(c2ccc(C#N)c(C(F)(F)F)c2F)C(=S)N1c1ccc(-c2ccc(OCCNC(=O)COc3cccc4c3C(=O)N(C3CCC(=O)NC3=O)C4=O)c(C#N)c2)nc1` (centres unmarked) [Compound A36], the “eAUC0.5-2 h” value in series [1] came to 29 ± 12 ng·h/mL. Moreover, on AR, the DC50 came out at 93 nM.
As for `Cc1ncsc1-c1ccc([C@H](C)NC(=O)[C@@H]2C[C@@H](O)CN2C(=O)[C@@H](NC(=O)COCCOc2ccc(-c3ncc(N4C(=S)N(c5ccc(C#N)c(C(F)(F)F)c5F)C(=O)C4(C)C)cc3F)cc2F)C(C)(C)C)cc1` [Compound A123], the “eAUC0.5-2 h” value in series [1] was 287 ± 146 ng·h/mL. Further, on AR, the DC50 came to 61.3 nM.
Regarding `Cc1ncsc1-c1ccc([C@H](C)NC(=O)[C@@H]2C[C@@H](O)CN2C(=O)[C@@H](NC(=O)COCCCCOc2ccc(-c3ncc(N4C(=S)N(c5ccc(C#N)c(C(F)(F)F)c5F)C(=O)C4(C)C)cc3C(F)(F)F)cc2F)C(C)(C)C)cc1` [Compound A108], in series [1], the “eAUC0.5-2 h” value amounted to 993 ± 201 ng·h/mL. The DC50 at AR came out at 136 nM.
The corresponding values for `Cc1ncsc1-c1ccc(CNC(=O)[C@@H]2C[C@@H](O)CN2C(=O)[C@@H](NC(=O)c2ccc(CNC(=O)CCCc3ccc(N4C(=S)N(c5ccc(C#N)c(C(F)(F)F)c5F)C(=O)C4(C)C)cn3)cc2)C(C)(C)C)cc1` [Compound A134] are 29 ± 22 ng·h/mL and 1130 nM.
Turning to `Cc1ncsc1-c1ccc(CNC(=O)[C@@H]2C[C@@H](O)CN2C(=O)[C@@H](NC(=O)COCCCCOc2ccc(-c3ccc(N4C(=S)N(c5ccc(C#N)c(C(F)(F)F)c5F)C(=O)C4(C)C)cn3)cc2Cl)C(C)(C)C)cc1` [Compound A83], the “eAUC0.5-2 h” value in series [1] was 574 ± 176 ng·h/mL. The DC50 on AR is 87.8 nM.
As to `Cc1ncsc1-c1ccc(CNC(=O)[C@@H]2C[C@@H](O)CN2C(=O)[C@@H](NC(=O)COCCCCOc2ccc(-c3ncc(N4C(=S)N(c5ccc(C#N)c(C(F)(F)F)c5F)C(=O)C4(C)C)cc3F)cc2)C(C)(C)C)cc1` [Compound A63], the “eAUC0.5-2 h” value in series [1] is 373 ± 242 ng·h/mL. The compound also showed a DC50 at AR of 37.9 nM.
As for `Cc1ncsc1-c1ccc(CNC(=O)[C@@H]2C[C@@H](O)CN2C(=O)[C@@H](N(C)C(=O)COCCCCOc2ccc(-c3ccc(N4C(=S)N(c5ccc(C#N)c(C(F)(F)F)c5F)C(=O)C4(C)C)cn3)cc2)C(C)(C)C)cc1` [Compound A66], the “eAUC0.5-2 h” value in series [1] came out at 525 ± 106 ng·h/mL. For the same compound, at AR, the DC50 is 213 nM.
As for `Cc1ncsc1-c1ccc([C@H](CC(=O)N2CCC(C#Cc3ccc(N4C(=S)N(c5ccc(C#N)c(C(F)(F)F)c5F)C(=O)C4(C)C)cc3)CC2)NC(=O)[C@@H]2C[C@@H](O)CN2C(=O)[C@@H](NC(=O)C2(F)CC2)C(C)(C)C)cc1` [Compound A133], the “eAUC0.5-2 h” value in series [1] worked out at 2253 ± 851 ng·h/mL. For the same compound, on AR, the DC50 was 33.3 nM.
Turning to `Cc1ncsc1-c1ccc([C@H](C)NC(=O)[C@@H]2C[C@@H](O)CN2C(=O)[C@@H](NC(=O)COCCCCOc2ccc(-c3ncc(N4C(=S)N(c5ccc(C#N)c(C(F)(F)F)c5F)C(=O)C4(C)C)cc3F)c(C(F)(F)F)c2)C(C)(C)C)cc1` [Compound A109], the “eAUC0.5-2 h” value in series [1] was 557 ± 108 ng·h/mL. Also, the DC50 on AR came out at 71.4 nM.
On to `Cc1ncsc1-c1ccc(CNC(=O)[C@@H]2C[C@@H](O)CN2C(=O)[C@@H](NC(=O)[C@H]2CC[C@H](CNC(=O)c3ccc(-c4ccc(N5C(=S)N(c6ccc(C#N)c(C(F)(F)F)c6F)C(=O)C5(C)C)cn4)cc3F)CC2)C(C)(C)C)cc1` [Compound A105], for which the “eAUC0.5-2 h” value in series [1] is 379 ± 300 ng·h/mL. The compound also returned a DC50 on AR of 188 nM.
For the compound `Cc1ncsc1-c1ccc(CNC(=O)[C@@H]2C[C@@H](O)CN2C(=O)[C@@H](NC(=O)COCCOCCOc2ccc(-c3ncc(N4C(=S)N(c5ccc(C#N)c(C(F)(F)F)c5F)C(=O)C4(C)C)cc3C(F)(F)F)cc2)C(C)(C)C)cc1` [Compound A93], the “eAUC0.5-2 h” value in series [1] was 275 ± 116 ng·h/mL. Also, the DC50 on AR came out at 51.1 nM.
For `Cc1ncsc1-c1ccc(CNC(=O)[C@@H]2C[C@@H](O)CN2C(=O)[C@@H](NC(=O)COCCCCOc2ccc(-c3ccc(N4C(=S)N(c5ccc(C#N)c(C(F)(F)F)c5F)C(=O)C4(C)C)cn3)cc2C#N)C(C)(C)C)cc1` [Compound A57], the “eAUC0.5-2 h” value in series [1] is 182 ± 84 ng·h/mL. The DC50 at AR was 31.8 nM.
For `Cc1ncsc1-c1ccc(CNC(=O)[C@@H]2C[C@@H](O)CN2C(=O)[C@@H](NC(=O)COCCCCOc2ccc(-c3ncc(N4C(=S)N(c5ccc(C#N)c(C(F)(F)F)c5F)C(=O)C4(C)C)cn3)cc2F)C(C)(C)C)cc1` [Compound A111], in series [1], the “eAUC0.5-2 h” value was 297 ± 78 ng·h/mL. On AR, the DC50 is 46.2 nM.
